Assay results taken from PubChem BioAssay AID2060898 (Molecular Pharmacology Branch, DTP, NCI, 2025).
Each block holds one compound with its values, some of them ahead of it.

System: 616215-338-R-J1-PDC complex spheroid viability
Experiment: Anticancer human tumor 616215-338-R-J1-PDC patient-derived colon adenocarcinoma cell line growth inhibition [RAS]
Details: for IC50: curve of first compound; for viability, T/C: stronger effect = lower value
In short: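 Agents were tested in combination matrices in half-log decrements from a top concentration at or near clinical Cmax (10 microM if undetermined). Targets were multi-cell spheroids of tumour lines plus HUVEC and MSC stromal cells.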

[1] = second compound 0.000949 µM, first compound 0.0316 µM
[2] = second compound 0.000949 µM, first compound 0.1 µM
[3] = second compound 0.000949 µM, first compound 0.316 µM
[4] = second compound 0.000949 µM, first compound 1 µM
[5] = second compound 0.003 µM, first compound 0.0316 µM
[6] = second compound 0.003 µM, first compound 0.1 µM
[7] = second compound 0.003 µM, first compound 0.316 µM
[8] = second compound 0.003 µM, first compound 1 µM
[9] = second compound 0.00949 µM, first compound 0.0316 µM
[10] = second compound 0.00949 µM, first compound 0.1 µM
[11] = second compound 0.00949 µM, first compound 0.316 µM
[12] = second compound 0.00949 µM, first compound 1 µM
[13] = second compound 0.03 µM, first compound 0.0316 µM
[14] = second compound 0.03 µM, first compound 0.1 µM
[15] = second compound 0.03 µM, first compound 0.316 µM
[16] = second compound 0.03 µM, first compound 1 µM
[17] = second compound 0.0949 µM, first compound 0.0316 µM
[18] = second compound 0.0949 µM, first compound 0.1 µM
[19] = second compound 0.0949 µM, first compound 0.316 µM
[20] = second compound 0.0949 µM, first compound 1 µM
[21] = second compound 0.3 µM, first compound 0.0316 µM
[22] = second compound 0.3 µM, first compound 0.1 µM
[23] = second compound 0.3 µM, first compound 0.316 µM
[24] = second compound 0.3 µM, first compound 1 µM
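Note: spheroids exposed to agents for seven days before viability readout.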
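Throughout, for viability, T/C: 100% = DMSO vehicle control viability.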

- IC50 (second compound 0.000949 µM): 2240 nM
- IC50 (second compound 0.003 µM): 228 nM
- IC50 (second compound 0.00949 µM): < 31.6 nM
- IC50 (second compound 0.03 µM): < 31.6 nM
- IC50 (second compound 0.0949 µM): < 31.6 nM
- IC50 (second compound 0.3 µM): < 31.6 nM
SMILES: NC1c2ccccc2OC12CCN(c1cnc3c(N4CCCc5ncccc54)n[nH]c3n1)CC2 (centres undefined) + CCn1c(-c2cc(N3CCN(C)CC3)cnc2C(C)OC)c2c3cc(ccc31)-c1csc(n1)CC(NC(=O)C1CC1C)C(=O)N1CCCC(N1)C(=O)OCC(C)(C)C2
- viability, T/C [1]: 81.9%
- viability, T/C [2]: 69.7%
- viability, T/C [3]: 60%
- viability, T/C [4]: 55.5%
- viability, T/C (second compound 0.000949 µM, first compound 3.16 µM): 51.2%
- viability, T/C (second compound 0.000949 µM, first compound 10 µM): 40.2%
- viability, T/C [5]: 73.5%
- viability, T/C [6]: 60.6%
- viability, T/C [7]: 44.6%
- viability, T/C [8]: 41.9%
- viability, T/C (second compound 0.003 µM, first compound 3.16 µM): 35.2%
- viability, T/C (second compound 0.003 µM, first compound 10 µM): 37.1%
- viability, T/C [9]: 49.4%
- viability, T/C [10]: 48.4%
- viability, T/C [11]: 42.9%
- viability, T/C [12]: 42.2%
- viability, T/C (second compound 0.00949 µM, first compound 3.16 µM): 36.4%
- viability, T/C (second compound 0.00949 µM, first compound 10 µM): 31.1%
- viability, T/C [13]: 38.7%
- viability, T/C [14]: 34.9%
- viability, T/C [15]: 33.9%
- viability, T/C [16]: 40.1%
- viability, T/C (second compound 0.03 µM, first compound 3.16 µM): 35.2%
- viability, T/C (second compound 0.03 µM, first compound 10 µM): 30.5%
- viability, T/C [17]: 35.9%
- viability, T/C [18]: 42.6%
- viability, T/C [19]: 47.9%
- viability, T/C [20]: 42.2%
- viability, T/C (second compound 0.0949 µM, first compound 3.16 µM): 44.2%
- viability, T/C (second compound 0.0949 µM, first compound 10 µM): 34.6%
- viability, T/C [21]: 51.7%
- viability, T/C [22]: 40.5%
- viability, T/C [23]: 44.6%
- viability, T/C [24]: 41.1%
- viability, T/C (second compound 0.3 µM, first compound 3.16 µM): 45.3%
- viability, T/C (second compound 0.3 µM, first compound 10 µM): 32.4%

- IC50 (second compound 0.000949 µM): 11.5 nM
- IC50 (second compound 0.003 µM): 7.36 nM
- IC50 (second compound 0.00949 µM): 3.62 nM
- IC50 (second compound 0.03 µM): < 3.16 nM
- IC50 (second compound 0.0949 µM): < 3.16 nM
- IC50 (second compound 0.3 µM): < 3.16 nM
SMILES: Nc1ccn(C2OC(CO)C(O)C2(F)F)c(=O)n1 (centres undefined) + CCn1c(-c2cc(N3CCN(C)CC3)cnc2C(C)OC)c2c3cc(ccc31)-c1csc(n1)CC(NC(=O)C1CC1C)C(=O)N1CCCC(N1)C(=O)OCC(C)(C)C2
- viability, T/C (second compound 0.000949 µM, first compound 0.00316 µM): 96.2%
- viability, T/C (second compound 0.000949 µM, first compound 0.01 µM): 53.7%
- viability, T/C [1]: 23.7%
- viability, T/C [2]: 13.8%
- viability, T/C [3]: 13.5%
- viability, T/C [4]: 15.7%
- viability, T/C (second compound 0.003 µM, first compound 0.00316 µM): 80.8%
- viability, T/C (second compound 0.003 µM, first compound 0.01 µM): 38.6%
- viability, T/C [5]: 20.2%
- viability, T/C [6]: 10.3%
- viability, T/C [7]: 11.4%
- viability, T/C [8]: 11%
- viability, T/C (second compound 0.00949 µM, first compound 0.00316 µM): 52.9%
- viability, T/C (second compound 0.00949 µM, first compound 0.01 µM): 28.8%
- viability, T/C [9]: 19.2%
- viability, T/C [10]: 9.65%
- viability, T/C [11]: 12.4%
- viability, T/C [12]: 10.4%
- viability, T/C (second compound 0.03 µM, first compound 0.00316 µM): 33.8%
- viability, T/C (second compound 0.03 µM, first compound 0.01 µM): 25.8%
- viability, T/C [13]: 18.5%
- viability, T/C [14]: 9.6%
- viability, T/C [15]: 8.72%
- viability, T/C [16]: 9.03%
- viability, T/C (second compound 0.0949 µM, first compound 0.00316 µM): 31.6%
- viability, T/C (second compound 0.0949 µM, first compound 0.01 µM): 22.4%
- viability, T/C [17]: 17.2%
- viability, T/C [18]: 7.8%
- viability, T/C [19]: 9.83%
- viability, T/C [20]: 8.16%
- viability, T/C (second compound 0.3 µM, first compound 0.00316 µM): 37.6%
- viability, T/C (second compound 0.3 µM, first compound 0.01 µM): 25.7%
- viability, T/C [21]: 21.4%
- viability, T/C [22]: 12.1%
- viability, T/C [23]: 9.28%
- viability, T/C [24]: 8.49%
